From US10889563B2, “Deoxyuridine triphosphatase inhibitors” (University of Southern California, priority 2013, dated 2021)

How the values were obtained:
[1] = molecular target: T1, Recombinant human deoxyuridine nucleotidohydrolase (dUTPase) (Homo sapiens, UniProt P33316); experiment: Fluorescence-based dUTPase inhibition assay (Example 23; 2.5 ng dUTPase, 10 min at 37° C.); assay type: biochemical; design: made in house
T1 sequence (P33316 1-164 isoform P33316-2): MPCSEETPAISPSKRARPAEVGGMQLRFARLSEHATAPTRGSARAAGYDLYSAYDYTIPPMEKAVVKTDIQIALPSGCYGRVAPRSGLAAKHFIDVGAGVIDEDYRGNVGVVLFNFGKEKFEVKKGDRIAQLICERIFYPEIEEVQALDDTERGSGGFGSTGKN
Text: PCI 10586, 10585 and 10213 were suspended in DMSO at a concentration of 100 mmol/L, fluorodeoxyuridine (FUdR) was obtained from Sigma (St Louis, Mo.) and maintained in sterile double-distilled water at stock concentrations of 50 mmol/L. Recombinant human deoxyuridine nucleotidohydrolase (dUTPase) was expressed and purified as described previously [Please provide reference or confirm as noted above].
The diastereomer compounds were isolated by preparative chiral HPLC and screened in a novel fluorescence-based assay as described in Wilson et al. (2011) Nucleic Acids Res., September 1 39(17). […] The subsequent fluorescence detection step involved five 10 min cycles at 60° C. to completion.

A549 cells [2] = experiment: Colony formation assay, A549; assay type: cell-based
Method: (§1) Colony forming assay showing the ability of colon (SW620, HCT 116), non-small cell lung (A549, H460, H1299 and H358) and breast (MCF7) cancer cells to survive and proliferate following transient 24 hour exposure to single agent PCI 1013, FUdR and combinations. Specifically, cells were seeded at densities between 50 and 100 cells/well in 24-well plates. Twenty-four hours later, cells were treated with increasing concentrations of PCI 10213, a fixed dose of FUdR and combinations of these. After 24 hours, drug was removed, cells were rinsed and allowed to outgrow for 10-14 days. At the conclusion of the outgrowth, cells were fixed in 60% ice cold methanol and stained with 0.1% crystal violet, scanned and counted. Data is presented as percentage of untreated controls (mean±SD). Fraction affected and combination indexes were calculated according to the method of Chou and Talalay where <1 is indicative of a synergistic drug interaction.
(§2) Subsequently, increasing concentrations of PCI 10213 were combined with a fixed dose of FUdR to evaluate the combined drug effect. In NSCLC cells, concentrations of PCI 10213 ranging from 3.1 μmol/L to 25 μmol/L were combined with 1 μmol/L FUdR. […] The effectiveness of this combination was pronounced in A549 and H460 cells where 12.5 and 25 μmol/L PCI 10213 combined with 1 μmol/L FUdR reduced cell viability by >95% compared to vehicle-treated controls.

HCT116 cells [3] = details: for decrease in growth / reduction in proliferation: 100 μmol/L single agent; for combined effect with 5-FU on growth inhibition: HCT116, fixed 25 μmol/L compound plus increasing 5-FU, up to 25 μmol/L 5-FU
SW620 cells [4] = experiment: Colony formation assay, SW620; assay type: cell-based; details: for number of colonies formed, single agent: SW620, PCI 10213 3.1 to 50 μmol/L or FUdR 1 μmol/L alone
Method: as §1
(§3) In colorectal cancer cells, concentrations of PCI 10213 ranging from 3.1 μmol/L to 50 μmol/L were combined with 0.5 μmol/L FUdR in HCT116 cells and 1 μmol/L FUdR in SW620 cells.

SW620 cells [5] = experiment: MTS growth inhibition assay, SW620; details: for growth inhibition as a single agent: SW620, 25 μmol/L single agent; for single agent activity / decrease in proliferation: 100 μmol/L single agent; for combined effect with 5-FU on growth inhibition: SW620, fixed 25 μmol/L compound plus increasing 5-FU, up to 25 μmol/L 5-FU
Method: (§4) The Cell Titer^96 AQueous MTS assay (Promega) was carried out according to the manufacturers guidelines. […] The combination effect was determined by the combination index (CI) method utilizing Calcusyn software (Biosoft, Ferguson, Mo.). Fraction affected (FA) was calculated from the percent growth inhibition: FA=(100−% growth inhibition)/100. CI values <1, synergism; 1-1.2, additive and >1.2, antagonism.
HCT116 and SW620 cells were exposed to increasing concentrations of each agent for 72 hours and growth inhibition was directly compared to vehicle-treated controls.

[6] = test system: NSCLC cells (H1299, A549, H358 and H460); experiment: Colony formation assay, NSCLC cells; assay type: cell-based
Method: as §1, §2

[7] = molecular target: T1, Recombinant human deoxyuridine nucleotidohydrolase (dUTPase); experiment: Fluorescence-based dUTPase inhibition assay (Example 19; 5 ng dUTPase, 8 min at 37° C.); details: for inhibition at 2.6 µM: 2.6 umol/L compound; for inhibition at 5.2 µM: 5.2 umol/L compound; for inhibition at 10.4 µM: 10.4 umol/L compound; for inhibition at 20.8 µM: 20.8 umol/L compound; for inhibition at 41.7 µM: 41.7 umol/L compound
Text: All drugs stocks were aliquoted and diluted as appropriate prior to use. The oligonucelotide primer, templates and fluorophore- and quencher-labeled detection probes are synthesized by Integrated DNA Technologies (Coralville, Iowa), subjected to polyacrylamide gel electrophoresis purification and reconstituted in Omnipur sterile nuclease-free water (EMD Chemicals USA, Gibbstown N.J.) at a stock concentration of 100 μmol/L. The two non-emissive (dark) quenching molecules incorporated into the detection probes include the Iowa black fluorescein quencher (IBFQ; absorption max 531 nm) and ZEN (non-abbreviation; absorption max 532 nm). The fluorescent label utilized was 6-FAM (5′-carboxyfluorescein; excitation max.=494 nm, emission max.=520 nm). Probes were further diluted to a working stock of 10 μmol/L and aliquoted to avoid repeated freeze/thaw cycles. AmpliTaq Gold DNA Polymerase, GeneAmp 10×PCR Buffer 2, MgCl2 and MicroAmp Optical 96-well Reaction Plates were purchased from Applied Biosystems (Carlsbad, Calif.). dNTPs were purchased individually at stock concentrations of 100 mmol/L from New England Biolabs at HPLC-certified >99% purity (Ipswich, Mass.).
Reaction mixtures contained primer, probe and template at an equimolar final concentration of 0.4 μmol/L. Magnesium chloride (MgCl2) was included at a final concentration of 2 mmol/L. Non-limiting dNTPs were included in the reaction mix in excess at a final concentration of 100 μmol/L (dUTP/dTTP was excluded). AmpliTaq Gold DNA polymerase was added at 0.875 U/reaction, 2.5 μl of 10×PCR buffer 2 added and nuclease-free ddH2O added to a final reaction volume of 25 μl. For dUTP inhibition analysis, the volume of ddH2O was further modified to accommodate an additional 1 μl of dUTPase (10 ng/μl) and 1 μl of inhibitor or DMSO control. Thermal profiling and fluorescence detection was performed using the ‘isothermal’ program on board an Applied Biosystems 7500 Real-Time PCR System. For analysis of dNTPs, the thermal profile consisted of an 8 min 37° C. step followed by a 10 min 95° C. step to ‘hot-start’ the Taq polymerase and a primer extension time of up to 30 min at 60° C. depending on the application. Raw fluorescence spectra for 6-FAM was measured using filter A at specified time intervals to follow assay progression using Sequence Detection Software (SDS Version 1.4, Applied Biosystems) and exported and analyzed in Microsoft Excel (Microsoft, Redmond Wash.) and Prism (GraphPad Software, La Jolla Calif.). In all cases, fluorescence values for blank reactions (limiting dNTP omitted) were subtracted to give normalized fluorescence units (NFU) to account for background fluorescence.
The assay employs a DNA polymerase-based approach utilizing an oligonucleotide template with 3 distinct regions: a 3′ primer binding region, a mid-template dUTP/thymidine triphosphate (TTP) detection region and a 5′ 6-Flavin adenine mononucleotide (FAM)-labeled probe binding region that incorporates a black hole quenching moiety.
reaction, the probe and primer hybridize to the oligonucleotide template to form the template:primer:probe complex. When Taq polymerase binds to the primer in the TPP complex and dUTP is present, successful extension of the nascent strand occurs and the inherent 5′ to 3′ exonuclease activity of Taq polymerase cleaves and displaces the 6-FAM-labeled probe in a 5′ to 3′ direction, releasing the 6-FAM fluorophore from its proximity to the three quenchers.

HCT116 cells [8] = experiment: Colony formation assay, HCT116; assay type: cell-based; details: for number of colonies formed, single agent: HCT116, PCI 10213 3.1 to 50 μmol/L or FUdR 0.5 μmol/L alone
Method: as §1, with “interaction. […]” for “interaction.”
as §3

A549 cells [9] = experiment: MTS growth inhibition assay, A549; details: A549, 72 hours; for decrease in growth / reduction in proliferation: 100 μmol/L single agent
Method: as §4
(§5) The NSCLC cell lines A549 and H1299 were exposed to increasing concentrations of each agent for 72 hours and growth inhibition was directly compared to vehicle-treated controls.

H460 cells = experiment: Colony formation assay, H460; assay type: cell-based
Method: as §1, §2

[10] = test system: colorectal (HCT116), breast (MCF-7) and non-small cell lung (H1299, A549, H358 and H460) cell line models; experiment: Colony formation assay, all cell lines evaluated; assay type: cell-based
Method: as §1, §2

H1299 cells = experiment: MTS growth inhibition assay, H1299; details: H1299, 72 hours, 100 μmol/L single agent
Method: as §4, §5

HCT116 cells [11] = experiment: cells; details: Homo sapiens, HCT-116, read-out: growth inhibition as a single agent
[12] = test system: MCF-7 breast cancer cell line; experiment: Colony formation assay, MCF-7; assay type: cell-based; details: MCF-7, 0.5 μmol/L
Method: as §1, §2

[13] = test system: HCT-8 colorectal cell line model; experiment: Colony formation assay, HCT-8; assay type: cell-based; details: HCT-8, 1 μmol/L
Method: as §1
Colony forming assays were subsequently performed to evaluate the effectiveness of additional PCI compounds alone and in combination with FUdR at reducing cancer cell viability in the HCT-8 colorectal cell line model. […] Subsequently, increasing concentrations of PCI compounds were combined with a fixed dose of 1 μmol/L FUdR to evaluate the combined drug effect.

HCT116 cells [14] = experiment: Colony formation assay, HCT116; assay type: cell-based; details: HCT116, 0.5 to 5 μmol/L (Example 23)

Row | Structure (SMILES) | decrease in growth / reduction in proliferation (HCT116 cells [3]; HCT116, 72 hours) [%] | combined effect with 5-FU on growth inhibition (HCT116 cells [3]) | number of colonies formed, single agent (SW620 cells [4]) | growth inhibition as a single agent (SW620 cells [5]) | single agent activity / decrease in proliferation (SW620 cells [5]; SW620, 72 hours) [%] | combined effect with 5-FU on growth inhibition (SW620 cells [5]) | IC50 [7] [µM] | inhibition at 1.3 µM ([7]; 1.3 umol/L compound) [%] | inhibition at 2.6 µM [7] [%] | inhibition at 5.2 µM [7] [%] | inhibition at 10.4 µM [7] [%] | inhibition at 20.8 µM [7] [%] | inhibition at 41.7 µM [7] [%] | % Inhibition ([7]; 83.3 umol/L compound) [%] | inhibition at 83.3 µM ([7]; 83.3 umol/L compound) [%] | number of colonies formed, single agent (HCT116 cells [8]) | decrease in growth / reduction in proliferation (A549 cells [9]) [%] | decrease in cell proliferation (H1299 cells) [%] | other results
1 | C[C@@H](NS(=O)(=O)CC/C=C/CC1CCC(=O)NC1=O)c1cccc(OCC2CC2)c1 (mixture of isomers) [PCI 10213] | 28 | additive and synergistic increases in growth inhibition | neither PCI 10213 or the fixed dose of FUdR single agent had any significant effect on the number of colonies formed | no detectable effect on growth inhibition | ~30 | additive and synergistic increases in growth inhibition | 7.2 | 28 | 31.6 | 40.9 | 60.3 | 64.5 | 73.8 | 86.1 | 86 | neither PCI 10213 or the fixed dose of FUdR single agent had any significant effect on the number of colonies formed | ~25 | 40 | inhibition at 1.3 µM ([1]; 1.3 μmol/L compound): 4.7%; inhibition at 2.6 µM ([1]; 2.6 μmol/L compound): 9.6%; inhibition at 5.2 µM ([1]; 5.2 μmol/L compound): 14.5%; inhibition at 10.4 µM ([1]; 10.4 μmol/L compound): 24.9%; inhibition at 20.8 µM ([1]; 20.8 μmol/L compound): 30%; inhibition at 41.7 µM ([1]; 41.7 μmol/L compound): 45.5%; inhibition at 83.3 µM ([1]; 83.3 μmol/L compound): 54.6%; reduction of cell viability, combination with FUdR (A549 cells [2]; A549, 12.5 and 25 μmol/L compound plus 1 μmol/L FUdR, vs vehicle-treated controls): > 95%; growth inhibition as a single agent (HCT116 cells [3]; HCT116, 25 μmol/L single agent): no detectable effect on growth inhibition; single agent activity (growth inhibition vs vehicle) (HCT116 cells [3]; HCT116, 72 hours, up to 75 μmol/L): little to no single agent activity; reduction of colony formation, combination with FUdR (SW620 cells [4]; SW620 (strongly FUdR-resistant), 12.5 and 25 μmol/L compound plus FUdR (0.5 μmol/L in the sentence)): > 50%; colonies, all combinations with FUdR (SW620 cells [4]; SW620, 3.1 to 50 μmol/L compound plus 1 μmol/L FUdR): strong synergistic reduction in colonies; single agent activity (growth inhibition vs vehicle) (SW620 cells [5]; SW620, 72 hours, up to 75 μmol/L): neither PCI 10213 or 10214 had any single agent activity; colonies formed, combination with FUdR ([6]; 3.1 to 25 μmol/L compound plus 1 μmol/L FUdR, vs single agents): highly significant reductions in colonies formed; viability, combination with FUdR (HCT116 cells [8]; HCT116, 50 μmol/L compound plus FUdR): complete loss of viability; colonies, all combinations with FUdR (HCT116 cells [8]; HCT116, 3.1 to 50 μmol/L compound plus 0.5 μmol/L FUdR): strong synergistic reduction in colonies; reduction of colony formation, combination with FUdR (HCT116 cells [8]; HCT116, 12.5 and 25 μmol/L compound plus 0.5 μmol/L FUdR): > 95%; reduction of cell viability, combination with FUdR (H460 cells; H460, 12.5 and 25 μmol/L compound plus 1 μmol/L FUdR, vs vehicle-treated controls): > 95%; number of colonies formed, compound alone ([10]; 3.1 to 25 μmol/L single agent): no significant effects on the number of colonies formed
2 | C[C@@H](NS(=O)(=O)CC/C=C/Cn1ccc(=O)[nH]c1=O)c1cccc(OCC2CC2)c1 [PCI 10216, reference compound] | 67 | additive and synergistic increases in growth inhibition |  | 30% | 70 | additive and synergistic increases in growth inhibition | 0.8 | 60 | 76.6 | 84.6 | 95.9 | 101 | 97.2 | 95.4 | 95 |  | 55 | 30 | number of colonies formed, compound alone (A549 cells [2]; A549, 25 and 50 μmol/L single agent): some reduction in the number of colonies formed; lowest concentration with detectable decrease in cell proliferation (HCT116 cells [3]; HCT116, 72 hours, single agent): 6.25 µmol/L; % Inhibition ([7]; 1.3 umol/L compound): 60.4%; number of colonies formed, compound alone (HCT116 cells [8]; HCT116, 25 and 50 μmol/L single agent): some reduction in the number of colonies formed; reduction in proliferation (A549 cells [9]; 75 μmol/L single agent): 30%; number of colonies formed, compound alone (H460 cells; H460, 25 and 50 μmol/L single agent): some reduction in the number of colonies formed; combined drug effect with fixed doses of FUdR ([10]; all cell lines examined (Example 22)): strong synergy; inhibition at 25 µM (HCT116 cells [11]): 44%
3 | O=c1[nH]c(=O)n([C@H]2C[C@H](O)[C@@H](CO)O2)cc1F [FUdR, fluorodeoxyuridine, reference compound] |  |  | neither PCI 10213 or the fixed dose of FUdR single agent had any significant effect on the number of colonies formed |  |  |  |  |  |  |  |  |  |  |  |  | neither PCI 10213 or the fixed dose of FUdR single agent had any significant effect on the number of colonies formed |  |  | number of colonies formed, FUdR alone [12]: no significant impact on the number of colonies formed; colonies formed, FUdR alone [13]: no substantial effect on colonies formed; number of colonies formed, FUdR alone ([6]; FUdR printed as One mol/L, vs vehicle-treated controls): no significant effect on number of colonies formed; number of colonies formed, FUdR alone (HCT116 cells [8]; HCT116, 0.5 μmol/L, vs vehicle-treated controls (Example 23)): no significant effect on number of colonies formed; colonies formed, FUdR alone ([10]; all cell lines evaluated, 0.5 to 2.5 μmol/L): dose-dependent decreases in colonies formed; colonies formed, FUdR alone (HCT116 cells [14]): dose-dependent decreases in colonies formed
